Data from article PMC9138141, “Design, Spectral Characteristics, Photostability, and Possibilities for Practical Application of BODIPY FL-Labeled Thioterpenoid” (Bioengineering, 2022).
Blank lines part the entries; values can stand above or below the molecule they belong to.

Key:
[1] = Solubility in water / micellar solution (NMR samples); format: physicochemical; details: DPC micelles, D2O
[2] = Electronic absorption spectra in organic solvents; format: physicochemical
Protocol: (§1) The absorption and emission spectra of dyes solutions (in the range of 10^−6 to 10^−5 M) were recorded on CM 2203 spectrofluorometer (SOLAR) in a 10 mm of absorbing layer thickness at T = 25 ± 0.1 °C. The fluorescence quantum yield (φ), the fluorescence lifetime (τ), the rate constants of radiative processes (krad), and-radiative deactivation (knr) were obtained to use by the standard procedure. The fluorescence quantum yields (φ) of compounds were measured using the standard method (using standard Rhodamine 6G). The φ and τ errors were 10–15 %. The Stokes shift ( ΔλSt ) was calculated by the formula: […]

[3] = Luminescent characteristics (fluorescence) in organic solvents; format: physicochemical; details: for λmaxfl: λex 470 nm
Protocol: as §1

[4] = Photobleaching (photodegradation) under UV irradiation at 365 nm; format: physicochemical
Protocol: The photofading was carried out in quartz cells. The BODIPY solutions in cyclohexane (toluene, 1-octanol, DMSO with c = ~1·10^−5 mol·L^−1) were irradiated with monochromatic light (mercury lamp 250 W with a light filter Carl Zeiss JENA, at λ = 365 nm and room temperature). The area of the light flux was 2.02 cm^2 at a specific power W365 = 4.04 mW·cm^−2 of the UV lamp. The irreversible bleaching of the luminophores at the absorption peak was monitored as a function of time. The EAS of the dye solution was recorded at equal intervals of irradiation (through 5–20 min) on a spectrofluorometer SM2203 in the 300–600 nm wavelength range. The half-life (t1/2) was defined as the time during which the chromophore is destroyed by 50%. The error in determining of t1/2 is 3–5%.
The observed photooxidation rate constants (kobs) were determined by the equation ln(At/A0) = kobs∙t, where A0 and At are the initial and current optical density at the maximum of the long-wavelength absorption band, respectively, and t is the time of irradiation of the sample with UV light.

[5] = test system: laboratory mice erythrocytes; test: Hemolytic activity (erythrotoxicity); format: cell-based; details: 20 µM, entire incubation period 5 h, 37 °C, PBS pH 7.4
Protocol: A 0.5% (v/v) suspension of laboratory mice erythrocytes in phosphate-buffered saline (PBS, pH 7.4) was used. The hemolytic activity (erythrotoxicity) of the compounds 2 and 6 was assessed by the degree of erythrocyte hemolysis 1, 3, and 5 h after the addition of solutions of the test compounds in DMSO (final concentration 20 μM). The erythrocyte suspension was incubated in a thermostatic shaker Biosan ES-20 with slow stirring at 37 °C temperature for 5 h. After 1, 3, and 5 h, an aliquot was taken, centrifuged, the degree of hemolysis was determined by the hemoglobin content in the supernatant on a Thermo Spectromic Genesys 20 spectrophotometer at λ = 541 nm. The percentage of hemolysis was calculated relative to the total hemolysis of the sample.

[6] = test system: laboratory mice erythrocytes; test: Penetration into RBC (fluorescence of hemolysates and of residual medium); format: cell-based
Protocol: To assess the rate of penetration of the BODIPY 2 and its conjugate with a thioterpenoid 6 into RBC, the compounds were added to a suspension of erythrocytes (final concentration 20 μM) and incubated in a thermostatic shaker Biosan ES-20 with slow stirring at 37 °C. After 10, 30, and 60 min, an aliquot was taken and centrifuged to separate erythrocytes from the incubation medium containing the BODIPY 2 or conjugate 6. Erythrocytes were washed three times with PBS, hemolyzed by adding H2O, DMSO was added, and the fluorescence spectra of hemolysates were studied using a Fluorat-02-Panorama spectrofluorometer (Lumex, Saint Petersburg, Russia). The binding of the BODIPY 2 or conjugate 6 to cells was judged from the fluorescence intensity of the corresponding compounds in hemolysates. DMSO was added to the medium (PBS) remaining after cell incubation, and the corresponding fluorescence spectra were also analyzed. Its intensity was used to judge the residual content of the studied compounds in PBS.

RBC = test: Uptake by erythrocytes visualized with CytoFLEX; format: cell-based, mice; details: 0.1 µM, 10 min, 488/521 nm λex/λem
Protocol: The uptake of compounds by erythrocytes was visualized using CytoFLEX SRT (Beckman Coulter) (0.2% suspension of RBC, compound concentration 0.1 μM), exposure time 10 min. Each experiment was carried out in 5–15 replicates. Statistical analysis was conducted using Microsoft Office Excel 2007 software packages. The data represent the mean ± SE.

[7] = range over the solvents studied

solubility in the micellar solution [1]: better solubility
SMILES: CC1(C)C2CC=C(CO)C1C2 (stereo not shown) [myrtenol]

ε, molar absorption coefficient ([2]; 1-butanol): 66887 L/mol/cm | λmaxabs S0→S1 ([2]; 1-butanol): 501 nm | λmaxabs S0→S2 ([2]; 1-butanol): 355–366 nm | ε, molar absorption coefficient ([2]; 1-octanol): 68275 L/mol/cm | λmaxabs S0→S1 ([2]; 1-octanol): 501 nm | λmaxabs S0→S2 ([2]; 1-octanol): 355–363 nm | ε, molar absorption coefficient ([2]; 1-propanol): 68931 L/mol/cm | λmaxabs S0→S1 ([2]; 1-propanol): 500 nm | λmaxabs S0→S2 ([2]; 1-propanol): 356–361 nm | ε, molar absorption coefficient ([2]; DMF): 70218 L/mol/cm | λmaxabs S0→S1 ([2]; DMF): 499 nm | λmaxabs S0→S2 ([2]; DMF): 357–361 nm | ε, molar absorption coefficient ([2]; DMSO): 68188 L/mol/cm | λmaxabs S0→S1 ([2]; DMSO): 500 nm | λmaxabs S0→S2 ([2]; DMSO): 355–360 nm | extinction coefficient ɛ, range ([2]; at 498–503 nm, organic solvents, in L/mol·cm): 64,000–78,000 | ε, molar absorption coefficient ([2]; chloroform): 76900 L/mol/cm | λmaxabs S0→S1 ([2]; chloroform): 503 nm | λmaxabs S0→S2 ([2]; chloroform): 352–363 nm | ε, molar absorption coefficient ([2]; cyclohexane): 75390 L/mol/cm | λmaxabs S0→S1 ([2]; cyclohexane): 502 nm | λmaxabs S0→S2 ([2]; cyclohexane): 357–362 nm | ε, molar absorption coefficient ([2]; ethanol): 64235 L/mol/cm | λmaxabs S0→S1 ([2]; ethanol): 498 nm | λmaxabs S0→S2 ([2]; ethanol): 359–361 nm | ε, molar absorption coefficient ([2]; toluene): 78830 L/mol/cm | λmaxabs S0→S1 ([2]; toluene): 503 nm | λmaxabs S0→S2 ([2]; toluene): 352–360 nm | ΔλSt, Stokes shift ([3]; 1-butanol): 15 nm | φ, fluorescence quantum yield ([3]; 1-butanol): 0.884 | λmaxfl ([3]; 1-butanol): 516 nm | ΔλSt, Stokes shift ([3]; 1-octanol): 13 nm | φ, fluorescence quantum yield ([3]; 1-octanol): 0.941 | λmaxfl ([3]; 1-octanol): 514 nm | ΔλSt, Stokes shift ([3]; 1-propanol): 14 nm | φ, fluorescence quantum yield ([3]; 1-propanol): 0.861 | λmaxfl ([3]; 1-propanol): 514 nm | ΔλSt, Stokes shift ([3]; DMF): 16 nm | φ, fluorescence quantum yield ([3]; DMF): 0.833 | increase of nonradiative deactivation constant knr ([3]; DMF and DMSO compared to cyclohexane): 200–300 times | λmaxfl ([3]; DMF): 515 nm | ΔλSt, Stokes shift ([3]; DMSO): 15 nm | φ, fluorescence quantum yield ([3]; DMSO): 0.763 | λmaxfl ([3]; DMSO): 515 nm | fluorescence quantum yield φ, range ([3]; at 514–519 nm, organic solvents): 76–100% | ΔλSt, Stokes shift ([3]; chloroform): 14 nm | φ, fluorescence quantum yield ([3]; chloroform): 0.878 | λmaxfl ([3]; chloroform): 517 nm | ΔλSt, Stokes shift ([3]; cyclohexane): 13 nm | φ, fluorescence quantum yield ([3]; cyclohexane): 0.999 | λmaxfl ([3]; cyclohexane): 515 nm | fluorescence quenching ([3]; electron-donating media): 16–24% | ΔλSt, Stokes shift ([3]; ethanol): 16 nm | φ, fluorescence quantum yield ([3]; ethanol): 0.857 | increase of fluorescence quantum yield in the homologous series of alcohols ([3]; ethanol, 1-propanol, 1-butanol, 1-octanol): ~ 8% | λmaxfl ([3]; ethanol): 514 nm | constants of radiative processes (krad) [3, 7]: 5.96–8.33 × 10^7 s^−1 | fluorescence lifetime [3, 7]: 10.2–16.0 ns | ΔλSt, Stokes shift ([3]; toluene): 16 nm | φ, fluorescence quantum yield ([3]; toluene): 0.867 | λmaxfl ([3]; toluene): 519 nm | emission band maxima λmaxfl, range ([3]; λex = 470 nm, all solvents): 510–519 nm | increase of photodegradation (photooxidation) efficiency in DMSO ([4]; DMSO compared to cyclohexane): > 10 times | increase of photostability compared to the meso-unsubstituted analog ([4]; UV irradiation): ~ 2 times | half-life increase / photodestruction rate constant decrease compared to 7 ([4]; studied solvents): 1.5–2.2 times
SMILES: CC1=CC(C)=[N+]2C1=C(CCCC(=O)OCCSC1CC3CCC1(C)C3(C)C)c1c(C)cc(C)n1[B-]2(F)F (stereo not shown) [Compound 6]
hemolysis of RBC (erythrotoxicity) [5]: did not exceed the spontaneous level | penetration into erythrocytes (fluorescence of RBC hemolysates) ([6]; 20 μM, 10, 30, 60 min incubation, RBC washed three times with PBS): actively penetrates erythrocytes | absorption by RBC from the incubation medium (decline of supernatant fluorescence) ([6]; 20 μM, 60 min incubation, PBS): more intensively than the initial BODIPY 2 | relative content of BODIPY-positive cells (RBC): more than an order of magnitude higher
